Data: publication PMC10758781 (Heliyon, 2023)
Read-outs that look alike come from different tables or passages of the source. *1 amine or outer side, *2 acyl side, *3 side chain or, on linkers, in order; H or OH if unused. Where a SMILES comes first, the peptide text is derived from it. Bridges are numbered along the chain shown (N, C = ends). Roman numbers before positions name the chains, in order. [ ]: non-standard residue; d: D form. Actinocin(9to1) = Cc1c2oc3c(C)ccc(C(=O)[*:1])c3nc-2c(C(=O)[*:2])c(N)c1=O; NMeV = CN[C@H](C(=O)O)C(C)C; Sar = CNCC(=O)O

Tests used:
ERβ LBD = ERβ LBD only, without NLS; ref ToxCast [23]; cited from earlier work
zERβ2 = type: in vivo, zebrafish; conditions: 3 dpf; for Liver GFP signal, number of zebrafish: total fish in next column
zebrafish = conditions: 3 dpf; for Toxicity, number of zebrafish: total fish in next column
[1] = system: zebrafish ERs (zERα, zERβ1, and zERβ2); type: in vivo; conditions: 3 dpf
ERβ [2] = target: T1, ERβ (Homo sapiens, UniProt Q92731); type: cell-based; conditions: for activity in GFP-ERβ:PRL-HeLa, EPA45 batch received: first batch of EPA45 chemicals; for effect on array size and dsRED2 features (in words): EPA45 library, 6-point dose-response
T1 sequence (Q92731 whole entry): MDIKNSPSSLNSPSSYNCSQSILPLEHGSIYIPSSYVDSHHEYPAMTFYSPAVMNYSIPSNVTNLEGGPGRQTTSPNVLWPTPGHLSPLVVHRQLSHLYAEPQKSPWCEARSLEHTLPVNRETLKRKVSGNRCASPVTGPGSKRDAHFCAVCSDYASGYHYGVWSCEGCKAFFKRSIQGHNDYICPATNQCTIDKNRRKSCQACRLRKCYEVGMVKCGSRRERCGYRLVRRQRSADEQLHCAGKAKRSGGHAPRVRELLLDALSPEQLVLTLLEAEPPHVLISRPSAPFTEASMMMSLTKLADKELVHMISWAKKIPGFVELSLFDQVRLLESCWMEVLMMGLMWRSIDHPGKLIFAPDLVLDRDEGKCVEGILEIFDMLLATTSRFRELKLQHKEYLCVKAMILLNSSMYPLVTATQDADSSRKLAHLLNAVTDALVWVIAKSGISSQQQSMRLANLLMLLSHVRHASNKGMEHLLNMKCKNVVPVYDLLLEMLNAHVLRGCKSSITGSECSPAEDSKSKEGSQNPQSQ

ERβ [3] = target: T1, ERβ; type: cell-based; conditions: for decrease of E2-induced stimulation of dsRED2 mRNA / decrease of basal dsRED2 mRNA transcription: 2-h, 4HT, ICI, PHTTP 1 μM, ActD 1 μg/ml, Flavo 100 nM; for decrease of E2-induced stimulation of dsRED2 mRNA: plus E2 10 nM; for decrease of basal dsRED2 mRNA transcription: without E2
zERα = target: T2, zERα (Danio rerio, UniProt P57717); type: in vivo, zebrafish; conditions: 3 dpf
T2 sequence (P57717 1-569): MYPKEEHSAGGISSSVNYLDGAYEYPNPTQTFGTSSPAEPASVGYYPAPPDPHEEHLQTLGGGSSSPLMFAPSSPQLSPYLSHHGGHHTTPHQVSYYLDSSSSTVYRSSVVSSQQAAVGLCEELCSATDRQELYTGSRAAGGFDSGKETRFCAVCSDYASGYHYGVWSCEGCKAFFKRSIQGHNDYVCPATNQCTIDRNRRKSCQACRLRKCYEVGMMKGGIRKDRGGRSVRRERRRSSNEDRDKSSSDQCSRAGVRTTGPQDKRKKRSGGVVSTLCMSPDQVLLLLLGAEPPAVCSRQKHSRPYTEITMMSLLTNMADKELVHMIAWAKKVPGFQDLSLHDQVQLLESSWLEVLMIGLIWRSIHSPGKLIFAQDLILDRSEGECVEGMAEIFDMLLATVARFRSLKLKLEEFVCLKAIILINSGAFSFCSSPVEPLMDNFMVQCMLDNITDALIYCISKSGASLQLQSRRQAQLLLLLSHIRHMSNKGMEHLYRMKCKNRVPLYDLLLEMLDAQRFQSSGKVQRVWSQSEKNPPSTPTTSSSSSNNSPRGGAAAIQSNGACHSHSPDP

[4] = system: zebrafish ERs (zERα, zERβ1, and zERβ2); conditions: read-out: EC50 in ERE:GFP zebrafish; previously published results; ref [36],[37]; cited from earlier work
[5] = time course, E2 10 nM, 4HT 100 nM
[6] = both concentrations tested (2 and 20 μM)

## OC(c1ccc(Cl)cc1)(c1cncnc1)c1ccccc1Cl (centres unmarked) [fenarimol]
ERβ LBD
  activity in BiFC ERβ dimerization assay: hits

## O=c1c(-c2ccc(O)cc2)coc2cc(O)cc(O)c12 [genistein, Genistein]
zERβ2; 1 μM
  Liver GFP signal, number of zebrafish: 0
zERβ2; 10 μM
  Liver GFP signal, number of zebrafish: 12
zERβ2; 100 μM
  Liver GFP signal, number of zebrafish: 6
zebrafish; 1 μM
  Toxicity, number of zebrafish: 0
zebrafish; 10 μM
  Toxicity, number of zebrafish: 0
zebrafish; 100 μM
  Toxicity, number of zebrafish: 12
[1]; 1 μM
  tissue GFP signal (in words): only heart valve signal
[1]; 10 μM
  tissue GFP signal (in words): heart valve and liver signal

## CCC(C)(c1ccc(O)cc1)c1ccc(O)cc1 [bisphenol B]
ERβ [2]; 2-h
  activity in GFP-ERβ:PRL-HeLa, EPA45 batch received: inactive
ERβ [3]; independent batch of the chemical
  activation of dsRED2, independent batch: little activation

## O=C1C2(Cl)C3(Cl)C4(Cl)C(Cl)(Cl)C5(Cl)C3(Cl)C1(Cl)C5(Cl)C24Cl (centres unmarked) [Kepone]
zERβ2; 2 μM
  Liver (zERβ/hERα), zebrafish with GFP signal / total: 0/18
zERβ2; 20 μM
  Liver (zERβ/hERα), zebrafish with GFP signal / total: 0/18
zebrafish; 2 μM
  Dead/Abnormal zebrafish / total: 0/18
zebrafish; 20 μM
  Dead/Abnormal zebrafish / total: 0/18

## CCCCOC(=O)c1ccccc1C(=O)OCc1ccccc1 [benzylbutylphthalate]
ERβ LBD
  activity in BiFC ERβ dimerization assay: hits

## Oc1ccc(-c2c(-c3ccccc3)nn3c(C(F)(F)F)cc(C(F)(F)F)nc23)cc1 [PHTTP, 4-[2-phenyl-5,7-bis(trifluoromethyl)pyrazolo[1,5-a]pyrimidin-3-yl]phenol]
ERβ [2]; GFP-ERβ:PRL-HeLa vs GFP-ERα:PRL-HeLa, 2-h, 10pM to 1 μM
  ER subtype preference across array metrics: preference for ERβ
ERβ [3]
  decrease of E2-induced stimulation of dsRED2 mRNA: > 2 fold
  decrease of basal dsRED2 mRNA transcription: > 2 fold

## O=c1c(O)c(-c2ccc(O)cc2)oc2cc(O)cc(O)c12 [Kaempferol]
zERβ2; 2 μM
  Liver (zERβ/hERα), zebrafish with GFP signal / total: 0/18
zERβ2; 20 μM
  Liver (zERβ/hERα), zebrafish with GFP signal / total: 0/18
zebrafish; 2 μM
  Dead/Abnormal zebrafish / total: 0/18
zebrafish; 20 μM
  Dead/Abnormal zebrafish / total: 0/18

## Cc1c2oc3c(C)ccc(C(=O)N[C@@H]4C(=O)N[C@H](C(C)C)C(=O)N5CCC[C@H]5C(=O)N(C)CC(=O)N(C)[C@@H](C(C)C)C(=O)O[C@@H]4C)c3nc-2c(C(=O)N[C@@H]2C(=O)N[C@H](C(C)C)C(=O)N3CCC[C@H]3C(=O)N(C)CC(=O)N(C)[C@@H](C(C)C)C(=O)O[C@@H]2C)c(N)c1=O [actinomycin D] (I: T[dV]P[Sar][NMeV] / II: T[dV]P[Sar][NMeV]; ester I:1-I:C, II:1-II:C; linker I:N-II:N via Actinocin(9to1))
ERβ [3]
  decrease of E2-induced stimulation of dsRED2 mRNA: > 2 fold
  decrease of basal dsRED2 mRNA transcription: > 2 fold

## C[C@@H]1C[C@@H]([C@H](O)CC2CC(=O)NC(=O)C2)C(=O)[C@@H](C)C1 [Cycloheximide]
zERβ2; 2 μM
  Liver (zERβ/hERα), zebrafish with GFP signal / total: 0/18
zERβ2; 20 μM
  Liver (zERβ/hERα), zebrafish with GFP signal / total: 1/18
ERβ [2]; 2-h
  effect on array size and dsRED2 features (in words): showed response in both features
zebrafish; 2 μM
  Dead/Abnormal zebrafish / total: 0/18
zebrafish; 20 μM
  Dead/Abnormal zebrafish / total: 8/18
zebrafish; 2 and 20 μM
  toxicity in zebrafish (in words): mostly toxic
ERβ LBD
  activity in BiFC ERβ dimerization assay: no effect

## OC(c1ccc(Cl)cc1)(c1ccc(Cl)cc1)C(Cl)(Cl)Cl [dicofol]
ERβ LBD
  activity in BiFC ERβ dimerization assay: hits

## CC/C(=C(\c1ccc(O)cc1)c1ccc(OCCN(C)C)cc1)c1ccccc1 [4HT, 4-Hydroxytamoxifen]
ERβ [2]; 384 well plates, four technical and four biological replicates
  Z-prime, Array Size: 0.61 ± 0.13
ERβ [2]; [5]
  change in array size vs DMSO (in words): decreasing it
  change in nuclear GFP-ERβ levels (in words): increase in GFP-ERβ signal within the nucleus
ERβ [3]
  decrease of E2-induced stimulation of dsRED2 mRNA: > 2 fold
  decrease of basal dsRED2 mRNA transcription: > 2 fold
ERβ [3]; 4HT 100 nM, vs DMSO
  intensity of dsRED2 RNA signal at the array (in words): diminishing significantly

## CC/C(=C(/CC)c1ccc(O)cc1)c1ccc(O)cc1 [diethylstilbestrol]
ERβ [2]; 2-h
  activity in GFP-ERβ:PRL-HeLa, EPA45 batch received: inactive

## CN1CC[C@H](c2c(O)cc(O)c3c(=O)cc(-c4ccccc4Cl)oc23)[C@H](O)C1 [flavopirodol]
ERβ [3]
  decrease of E2-induced stimulation of dsRED2 mRNA: > 2 fold
  decrease of basal dsRED2 mRNA transcription: > 2 fold

## CCC1(c2ccccc2)C(=O)NC(=O)NC1=O [Phenobarbital sodium]
zERβ2; 2 μM
  Liver (zERβ/hERα), zebrafish with GFP signal / total: 16/18
zERβ2; 20 μM
  Liver (zERβ/hERα), zebrafish with GFP signal / total: 16/18
zERα; 2 μM
  Heart (zERα/hERβ), zebrafish with GFP signal / total: 17/18
zERα; 20 μM
  Heart (zERα/hERβ), zebrafish with GFP signal / total: 14/18
ERβ [2]; 2-h
  effect on array size and dsRED2 features (in words): showed response in both features
zebrafish; 2 μM
  Dead/Abnormal zebrafish / total: 1/18
zebrafish; 20 μM
  Dead/Abnormal zebrafish / total: 1/18
ERβ LBD
  activity in BiFC ERβ dimerization assay: no effect
[1]; [6]
  tissue GFP signal (in words): showed GFP signal in both the liver and heart valve

## C[C@]12C[C@H](O)[C@H]3[C@@H](CCC4=CC(=O)CC[C@@]43C)[C@@H]1CC[C@@H]2C(=O)CO [Corticosterone]
zERβ2; 2 μM
  Liver (zERβ/hERα), zebrafish with GFP signal / total: 18/18
zERβ2; 20 μM
  Liver (zERβ/hERα), zebrafish with GFP signal / total: 16/18
zERα; 2 μM
  Heart (zERα/hERβ), zebrafish with GFP signal / total: 18/18
zERα; 20 μM
  Heart (zERα/hERβ), zebrafish with GFP signal / total: 16/18
ERβ [2]; 2-h
  effect on array size and dsRED2 features (in words): showed response in both features
zebrafish; 2 μM
  Dead/Abnormal zebrafish / total: 0/18
zebrafish; 20 μM
  Dead/Abnormal zebrafish / total: 2/18
ERβ LBD
  activity in BiFC ERβ dimerization assay: no effect
[1]; [6]
  tissue GFP signal (in words): showed GFP signal in both the liver and heart valve

## COc1ccc(C(c2ccc(OC)cc2)C(Cl)(Cl)Cl)cc1 [methoxychlor]
ERβ LBD
  activity in BiFC ERβ dimerization assay: hits

## CC(C)(c1ccc(O)cc1)c1ccc(O)cc1 [bisphenol A]
ERβ [2]; 2-h
  activity in GFP-ERβ:PRL-HeLa, EPA45 batch received: inactive
ERβ [2]; independent batches of the chemicals
  activity in GFP-ERβ:PRL-HeLa, independent batches: confirmed activity

## C[C@]12CC[C@@H]3c4ccc(O)cc4C[C@@H](CCCCCCCCC[S+]([O-])CCCC(F)(F)C(F)(F)F)[C@H]3[C@@H]1CC[C@@H]2O (some centres unmarked) [ICI182,780, ICI 182,780]
ERβ [3]
  decrease of E2-induced stimulation of dsRED2 mRNA: > 2 fold
  decrease of basal dsRED2 mRNA transcription: > 2 fold

## C[C@]12CC[C@@H]3c4ccc(O)cc4CC[C@H]3[C@@H]1CC[C@@H]2O [E2, Estradiol (17-β)]
[4]
  EC50: 3 to 5 nM
zERβ2; 1 nM
  Liver GFP signal, number of zebrafish: 0
zERβ2; 10 nM
  Liver GFP signal, number of zebrafish: 10
zERβ2; 100 nM
  Liver GFP signal, number of zebrafish: 12
zebrafish; 1 nM
  Toxicity, number of zebrafish: 0
zebrafish; 10 nM
  Toxicity, number of zebrafish: 0
zebrafish; 100 nM
  Toxicity, number of zebrafish: 0
ERβ [3]; E2 10 nM, vs DMSO
  increase of intensity of dsRED2 RNA signal at the array: ~3 fold
[1]
  lowest concentration inducing GFP signal in both heart valve and liver: 10 nM
